Experimental data taken from EPA's ToxValDB 9.5 (doi:10.2903/j.efsa.2014.3880).
Where “and” joins values, the source holds several entries; their conditions need not be identical. Equal values may be shown once.

Columns and labels:
[1] = tested on: Tagia sp.
[2] = tested on: Folsomia candida; details: chronic/long-term
[3] = tested on: Daphnia magna; details: chronic/long-term; duration: 21 days; reproduction
[4] = tested on: Apis mellifera; details: acute, mortality
[5] = tested on: Colinus virginianus
[6] = tested on: Oncorhynchus mykiss; details: chronic/long-term; duration: 65 days; mortality
[7] = tested on: Anas platyrhynchos; details: short-term; oral; feed; food consumption
[8] = tested on: Bibionidae; details: chronic/long-term; duration: 23 days; reproduction
[9] = tested on: Rattus norvegicus; details: for NOAEL: chronic
[10] = tested on: Typhlodromus pyri; assay: LR50; higher = less toxic; details: not reported; reproduction

Compound `c1ccc2[nH]c(-c3cscn3)nc2c1` [Thiabendazole] has an LC50 ([1]; acute, duration: 14 days, mortality) of over 224 mg/kg, an NOEC ([1]; chronic/long-term, duration: 8 weeks) of 2.1 mg/kg and an NOEC [2] of 25 mg/kg. It also gave an NOEC [3] of 0.041 mg/L, an LD50 ([4]; dermal) of over 34 µg/piece and an LD50 ([4]; oral, unspecified) of over 200 µg/piece. For the same compound, the LD50 ([5]; acute, oral) was over 2250 mg/kg, the NOAEL ([5]; reproduction developmental) was 34.9 mg/kg-day and the NOEC [6] was 0.012 mg/L. The LC50 [7] was over 1290 mg/kg, the NOEC [8] was 2 mg/L and 3 mg/kg and the LD50 ([9]; acute) was 3100 mg/kg. The NOAEL [9] was 10 mg/kg-day, the NOAEL ([9]; duration: 2 years, histopathology: neoplastic) was 10 mg/kg-day and the NOEL ([9]; reproduction developmental, reproduction) was 10 mg/kg-day. The LR50 [10] was over 1800 g/ha.
